Measurements from US10253023B2, “Heteroaryl compounds as BTK inhibitors and uses thereof” (Merck Patent GmbH, priority 2014, dated 2019).

Molecular target: T1, BTK C481S (Homo sapiens, UniProt Q06187, C481S)
T1 construct: His-TEV-hsBTK(328-659)(C481S) from the Merck Serono Protein Purification Laboratory; His (N); TEV (protease cleavage site) (N)
Experiment: Assay B: Microfluidic Off-Chip Mobility Shift Assay against BTK C481S enzyme
Assay type: biochemical
Settings: His-TEV-hsBTK(328-659)(C481S), 90 min, 25° C
Text: Assay B: Microfluidic Off-Chip Mobility Shift Assay Protocol for Potency Assessment Against BTK C481S Enzyme The protocol below describes a microfluidic, off-chip mobility shift kinase assay to measure inherent potency of compounds against BTK C481S enzyme. The mechanics of the assay platform are described by the vendor (PerkinElmer, Hopkinton, Mass.) on their website at the following URL: […].com. Briefly, 2.5× stocks of His-TEV-hsBTK(328-659)(C481S) from the Merck Serono Protein Purification Laboratory in Darmstadt, Germany (PCS, […]/234), 1.6×ATP and appropriate […] peptide substrate (FITC-AHA-[…]-NH2; Tufts University Core Facility custom synthesis) were prepared in kinase reaction buffer consisting of 25 mM MgCl2, 0.015% Brij-35 (30%), 100 mM HEPES, pH 7.5, and 10 mM DTT. […] Terminated reactions were monitored at -2 PSI, -3000 V/-700 Volts in a LabChip 3000 plate reader from Caliper Life Sciences, a PerkinElmer Company (Hopkinton, Mass.), and the activity was quantified by laser-induced fluorescence measuring the charge/mass difference between substrate and product resulting from peptide phosphorylation. IC50 and efficacy were determined by plotting log [Inhibitor] vs. % Activity in GeneData Screener (Basel, Switzerland).

T1 sequence (Q06187 328-659 C481S): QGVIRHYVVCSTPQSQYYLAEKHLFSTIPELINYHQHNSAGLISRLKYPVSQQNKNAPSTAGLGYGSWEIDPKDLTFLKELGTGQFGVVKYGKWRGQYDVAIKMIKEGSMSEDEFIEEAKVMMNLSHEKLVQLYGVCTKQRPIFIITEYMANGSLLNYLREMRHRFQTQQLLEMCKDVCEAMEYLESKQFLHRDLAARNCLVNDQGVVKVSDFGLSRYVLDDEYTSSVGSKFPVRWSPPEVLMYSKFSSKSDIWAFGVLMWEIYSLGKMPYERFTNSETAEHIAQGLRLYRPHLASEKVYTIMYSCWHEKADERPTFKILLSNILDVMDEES

## CC(C)(C)c1noc(C(=O)NCc2ccc(-c3ccnc4[nH]c(-c5cnn(C6COC6)c5)nc34)cc2F)n1 [Example 128]
  IC50: < 100 nM
